Test results: patent US20140142053A1, “Use of a Composition Comprising Acylated Steryl Glucoside in the Manufacture of a Product” (UNIVERSITI PUTRA MALAYSIA, priority 2011, published 2014)

Legend:
[1] = tested on: high-density lipoprotein (HDL); assay: percentage change in high-density lipoprotein in diabetic rats (FIG. 7); type: in vivo, rat; details: A200: ASG in 200 mg/kg body weight, compared to white-rice fed and metformin-treated rats
[2] = tested on: low-density lipoprotein (LDL); assay: percentage change in low-density lipoprotein in diabetic rats (FIG. 5); type: in vivo, rat; details: compared to white rice-fed and tween-treated rats

| Compound | HDL level (percentage change in high-density lipoprotein) [1] | LDL level (percentage change in low-density lipoprotein) ([2]; A100: ASG in 100 mg/kg body weight) | LDL level (percentage change in low-density lipoprotein) ([2]; A200: ASG in 200 mg/kg body weight) | LDL level (percentage change in low-density lipoprotein) ([2]; fed/treated groups) |
| --- | --- | --- | --- | --- |
| acylated steryl glucoside [ASG] | increased | reduced | reduced | – |
| CN(C)C(=N)N=C(N)N [metformin, reference compound] | – | – | – | reduced |
